One assay concerns the target HDAC8 (Homo sapiens (Human), UniProt Q9BY41). The experiment in a line: In vitro enzyme inhibition assay - HDAC (HDAC-Glo I/II), HDAC8. In kind it is biochemical. The note with it: read-out: HDAC IC50 (nM) HDAC 8. Here is the method:
2. In Vitro Enzyme Inhibition Assay—HDAC
The effect of the compound on the enzymatic activity of pan-HDAC and two isoforms (HDAC1 and HDAC8) was examined using the HDAC-Glo I/II Assay and Screening System assay to assess the level of inhibition of HDAC protease activity and selectivity in each isoform. The proteins and detection reagents were from the HDAC-Glo™ I/II Assay and Screening System (Promega). A 1 mM stock solution of the compound was prepared in DMSO and diluted in a 5-fold gradient to create a series of 8 concentrations, and a specific volume of the highest concentration was diluted 25 times with HDAC Buffer to obtain 4× working solution of the compound. […] The 384-well plate was then read on a multifunctional microplate reader, with the Luminescence channel selected to record Luminescence values (RLU). The inhibition rate was calculated using the following formula: […]
Note: ‘Negative’ refers to the group without the inhibitor; ‘Blank’ refers to the group without the enzyme.
The IC50 value was calculated by fitting the inhibition rate by GraphPad Prism software, employing log (inhibitor) vs. response-Variable Slope (four parameters) model.

A further assay concerns the target LSD1 (Homo sapiens (Human), UniProt O60341). The experiment in a line: In vitro enzyme inhibition assay - LSD1 (HTRF). In kind it is biochemical.
The next assay has as its system NCI-H1417 cells. The experiment in a line: In vitro cell inhibition assay - H1417 cell proliferation (CellTiter-Glo). In kind it is cell-based. The conditions noted are these: Homo sapiens, NCI-H1417, H1417 small cell lung cancer cell proliferation. In short, it runs like this:
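Cells exposed to 8 compound concentrations (5-fold dilutions) in BEGM with 10% FBS for 7 days at 37° C., 5% CO2. Viable cells measured by CellTiter-Glo luminescence; inhibition versus no-inhibitor and no-cell controls, IC50 fitted.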

For a further assay, the system named is NCI-H69 cells. The experiment in a line: In vitro cell inhibition assay - NCI-H69 cell proliferation (CellTiter-Glo). In kind it is cell-based. The conditions noted are these: Homo sapiens, NCI-H69, H69 small cell lung cancer cell proliferation. In short, it runs like this: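 Proliferation was assessed after a 7-day compound treatment of cells seeded at 1×10^3 per well. IC50 values came from fitting inhibition rates derived from CellTiter-Glo luminescence.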

The target in a further assay is pan-HDAC. The experiment in a line: In vitro enzyme inhibition assay - HDAC (HDAC-Glo I/II), pan-HDAC. In kind it is biochemical. In short, it runs like this:
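Inhibition was measured with the HDAC-Glo I/II luminescent assay, testing compound as an 8-point, 5-fold dilution series from a 1 mM DMSO stock. Luminescence (RLU) was normalized to no-inhibitor and no-enzyme controls, and IC50 was derived by four-parameter variable-slope fitting.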

Counter-ions that a name gives are not always drawn.

Sequence of HDAC8 (Q9BY41 whole entry): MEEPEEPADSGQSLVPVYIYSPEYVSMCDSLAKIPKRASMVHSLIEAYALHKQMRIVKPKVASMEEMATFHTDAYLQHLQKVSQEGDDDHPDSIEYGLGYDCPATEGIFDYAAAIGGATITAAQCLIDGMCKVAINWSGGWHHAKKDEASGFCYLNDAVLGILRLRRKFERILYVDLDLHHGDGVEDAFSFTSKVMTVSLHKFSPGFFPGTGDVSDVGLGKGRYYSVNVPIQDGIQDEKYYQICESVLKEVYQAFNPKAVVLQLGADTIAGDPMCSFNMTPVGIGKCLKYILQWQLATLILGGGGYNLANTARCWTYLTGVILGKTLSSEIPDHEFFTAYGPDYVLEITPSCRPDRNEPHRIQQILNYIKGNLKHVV

Take `COc1ccc(-c2cnc(N3CCC(NCc4ccc(/C=C/C(=O)NO)o4)CC3)c(C#N)c2-c2ccc(C#N)c(F)c2)cc1O` [Example 178, (E)-3-(5-(((1-(3-Cyano-4-(4-cyano-3-fluorophenyl)-5-(3-hydroxy-4-methoxyphenyl)pyridin-2-yl)piperidin-4-yl)amino)methyl)furan-2-yl)-N-hydroxyacrylamide formate]: the IC50 is 1710 nM at HDAC8; 0.65 nM against LSD1; 4.21 nM with NCI-H1417 cells; 906 nM with NCI-H69 cells; 588 nM against pan-HDAC.
For `COc1ccc(-c2cnc(N3CCC(NCc4ccc(/C=C/C(=O)NO)c5[nH]ncc45)CC3)c(C#N)c2-c2ccc(C#N)c(F)c2)cc1O` [Example 180, (E)-3-(4-(((1-(3-Cyano-4-(4-cyano-3-fluorophenyl)-5-(3-hydroxy-4-methoxyphenyl)pyridin-2-yl)piperidin-4-yl)amino)methyl)-1H-indazol-7-yl)-N-hydroxyacrylamide formate] the same measures were 1240 nM, 0.11 nM, 3.63 nM, 5040 nM and 23.4 nM.
In the case of `COc1ccc(-c2cnc(N3CCC(NCc4ccc(OC(C)C(=O)NO)cc4)CC3)c(C#N)c2-c2ccc(C#N)c(F)c2)cc1O` (stereo not shown) [Example 183, 2-(4-(((1-(3-Cyano-4-(4-cyano-3-fluorophenyl)-5-(3-hydroxy-4-methoxyphenyl)pyridin-2-yl)piperidin-4-yl)amino)methyl)phenoxy)-N-hydroxypropanamide formate], the IC50 amounted to 3720 nM on HDAC8; 0.09 nM against LSD1; 1.49 nM in the assay on NCI-H1417 cells; 742 nM in the assay with NCI-H69 cells; 970 nM on pan-HDAC.
Taken in the same sequence, the figures for `CC(C)(O)COc1ccc(-c2cnc(N3CCC(NCc4cnc(CCC(=O)NO)s4)CC3)c(C#N)c2-c2ccc(C#N)c(F)c2)cc1O` [Example 185, 3-(5-((1-(3-Cyano-4-(4-cyano-3-fluorophenyl)-5-(3-hydroxy-4-(2-hydroxy-2-methylpropoxy)phenyl)pyridin-2-yl)piperidin-4-yl)amino)methyl)thiazol-2-yl)-N-hydroxypropanamide formate] were 2160 nM, 3.9 nM, 6.16 nM, 275 nM and 60.1 nM.
For `N#Cc1ccc(-c2c(-c3ccc(C(F)(F)F)c(O)c3)cnc(N3CCC(NCc4cnc(/C=C/C(=O)NO)nc4)CC3)c2C#N)cc1F` [Example 186, (E)-3-(5-(((1-(3-Cyano-4-(4-cyano-3-fluorophenyl)-5-(3-hydroxy-4-(trifluoromethyl)phenyl)pyridin-2-yl)piperidin-4-yl)amino)methyl)pyrimidin-2-yl)-N-hydroxyacrylamide formate] the same measures were 50.9 nM, 10.2 nM, 23.5 nM, 85 nM and 11.9 nM.
For `N#Cc1ccc(-c2c(-c3ccc(C(F)(F)F)c(O)c3)cnc(N3CCC(NCc4ccc(CCC(=O)NO)cc4)CC3)c2C#N)cc1F` [Example 190, 3-(4-((1-(3-Cyano-4-(4-cyano-3-fluorophenyl)-5-(3-hydroxy-4-(trifluoromethyl)phenyl)pyridin-2-yl)piperidin-4-yl)amino)methyl) phenyl)-N-hydroxypropanamide formate] the same measures were 336 nM, 2.85 nM, 7.33 nM, 93.4 nM and 5.96 nM.
Consider `COc1ccc(-c2cnc(N3CCC(NCc4ccc(CCC(=O)NO)c(C#N)c4)CC3)c(C#N)c2-c2ccc(C#N)c(F)c2)cc1O` [Example 193, 3-(2-Cyano-4-((1-(3-cyano-4-(4-cyano-3-fluorophenyl)-5-(3-hydroxy-4-methoxyphenyl)pyridin-2-yl)piperidin-4-yl)amino)methyl) phenyl)-N-hydroxypropanamide formate], for which the IC50 at HDAC8 came out at 297 nM; on LSD1, 1.71 nM; with NCI-H1417 cells, 12.6 nM; with NCI-H69 cells it was 221 nM; on pan-HDAC, 8.36 nM.
For `CNc1ccc(-c2cnc(N3CCC(NCc4ccc(CCC(=O)NO)cn4)CC3)c(C#N)c2-c2ccc(C#N)c(F)c2)cc1O` [Example 194, 3-(6-((1-(3-Cyano-4-(4-cyano-3-fluorophenyl)-5-(3-hydroxy-4-(methylamino)phenyl)pyridin-2-yl)piperidin-4-yl)amino)methyl) pyridin-3-yl)-N-hydroxypropanamide hydrochloride] the same measures were 543 nM, 1.09 nM, 119 nM, 1030 nM and 7.27 nM.
For `N#Cc1ccc(-c2c(-c3ccc(C(F)(F)F)c(O)c3)cnc(N3CCC(NCc4cnc(CCC(=O)NO)nc4)CC3)c2C#N)cc1F` [Example 195, 3-(5-(1-(3-Cyano-4-(4-cyano-3-fluorophenyl)-5-(3-hydroxy-4-trifluoromethylphenyl)pyridin-2-yl)piperidin-4-ylamino)methyl) pyrimidin-2-yl)-N-hydroxypropanamide formate] the same measures were 172 nM, 4.12 nM, 52.4 nM, 1670 nM and 11.8 nM.
Taken in the same sequence, the figures for `CNc1ccc(-c2cnc(N3CCC(NCc4cnc(/C=C/C(=O)NO)nc4)CC3)c(C#N)c2-c2ccc(C#N)c(F)c2)cc1O` [Example 196, (E)-3-(5-(((1-(3-Cyano-4-(4-cyano-3-fluorophenyl)-5-(3-hydroxy-4-(methylamino)phenyl)pyridin-2-yl)piperidin-4-yl)amino)methyl)pyrimidin-2-yl)-N-hydroxyacrylamide hydrochloride] were 26.5 nM, 6.68 nM, 39.3 nM, 83.3 nM and 5.69 nM.
Regarding `CC(C)(O)COc1ccc(-c2cnc(N3CCC(NCc4ccc(CCC(=O)NO)nc4)CC3)c(C#N)c2-c2ccc(C#N)c(F)c2)cc1O` [Example 204, 3-(5-((((1-(3-Cyano-4-(4-cyano-3-fluorophenyl)-5-(3-hydroxy-4-(2-hydroxy-2-methylpropoxy)phenyl)pyridin-2-yl)piperidin-4-yl)amino)methyl)pyridin-2-yl)-N-hydroxypropanamide formate], the IC50 on HDAC8 was 26.2 nM; against LSD1, 1.58 nM; with NCI-H1417 cells it was 5.14 nM; in the assay on NCI-H69 cells it was 89.2 nM; against pan-HDAC it was 2.37 nM.
For `COc1ccc(-c2cnc(N3CCC(NCc4ccc(CCC(=O)NO)cc4)CC3)c(C)c2-c2ccc(C#N)c(F)c2)cc1O` [Example 209, 3-(4-(((1-(4-(4-Cyano-3-fluorophenyl)-5-(3-hydroxy-4-methoxyphenyl)-3-methylpyridin-2-yl)piperidin-4-yl)amino)methyl)phenyl)-N-hydroxypropanamide hydrochloride], the IC50 at HDAC8 was 3.09 nM; on LSD1 it was 0.6 nM; with NCI-H1417 cells, 14.5 nM; in the assay on NCI-H69 cells it was 40.3 nM; on pan-HDAC, 163 nM.
Taken in the same sequence, the figures for `COc1ccc(-c2cnc(N3CCC(NCc4ccc(/C=C/C(=O)NO)cc4C)CC3)c(C#N)c2-c2ccc(C#N)c(F)c2)cc1O` [Example 211, (E)-3-(4-(((1-(3-Cyano-4-(4-cyano-3-fluorophenyl)-5-(3-hydroxy-4-methoxyphenyl)pyridin-2-yl)piperidin-4-yl)amino)methyl)-3-methylphenyl)-N-hydroxyacrylamide formate] were 83.5 nM, 0.31 nM, 10.7 nM, 189 nM and 2.04 nM.
For `C/C(=C\C(=O)NO)c1ccc(CNC2CCN(c3ncc(-c4ccc(OCC(C)(C)O)c(O)c4)c(-c4ccc(C#N)c(F)c4)c3C#N)CC2)cc1` [Example 212, (E)-3-(4-(((1-(3-Cyano-4-(4-cyano-3-fluorophenyl)-5-(3-hydroxy-4-(2-hydroxy-2-methylpropoxy)phenyl)pyridin-2-yl)piperidin-4-yl)amino)methyl)phenyl)-N-hydroxybut-2-enamide hydrochloride] the same measures were 41.5 nM, 0.04 nM, 1.16 nM, 53.8 nM and 6.55 nM.

Source of the values: US20250304549A1, “HYDROXYAMIDE DERIVATIVE AND USE THEREOF” (SICHUAN HUIYU PHARMACEUTICAL CO., LTD., priority 2022, published 2025).
